The text below walks through data of article PMC10974149, “Acheta domesticus: A Natural Source of Anti-Skin-Aging Ingredients for Cosmetic Applications” (Pharmaceuticals, 2024).

Values after ≈ are worked out from the molar mass of the structure shown.

In this experiment the target is T1, collagenase from Clostridium histolyticum.
T1 construct: gene colG
As to the kind of experiment: spectrophotometric collagenase inhibition assay. Particulars: positive control; substrate not stated in the assay section (FALGPA among reagents). In kind it is biochemical. The source says: spectrophotometric collagenase inhibition assay on collagenase from Clostridium histolyticum

In the case of `CC1(C)CC[C@]2(C(=O)O)CC[C@]3(C)C(=CC[C@@H]4[C@@]5(C)CC[C@H](O)C(C)(C)[C@@H]5CC[C@]43C)[C@@H]2C1` [OA, Oleanolic acid], the “IC50 (μg/mL) / Collagenase Inhibition” value worked out at 3 ± 1 µg/mL (≈ 6.57 µM).
